Results as given in US20250333424A1, “ANTIVIRAL COMPOUNDS” (Gilead Sciences, Inc., priority 2024, published 2025).

test system: monocytic THP1 cells infected with HIV VSV-G pseudotyped GFP-NEF reporter virus; assay: cells; assay type: cell-based; settings: Human immunodeficiency virus 1, THP-1, 24 h

| Compound | EC50 |
| --- | --- |
| Cc1cc(/C=C/C#N)cc(C)c1Oc1nc(NC23CC(C#N)(C2)C3)nc2nc(C3CCOCC3)[nH]c12 [Compound 52, (E)-3-((6-(4-(2-cyanovinyl)-2,6-dimethylphenoxy)-8-(tetrahydro-2H-pyran-4-yl)-7H-purin-2-yl)amino)bicyclo[1.1.1]pentane-1-carbonitrile] | 137 nM |
| Cc1cc(/C=C/C#N)cc(C)c1Oc1nc(NC23CC(C#N)(C2)C3)nc2c1C(C)N(c1cn(C)nc1C)C2=O (centres unmarked) [Example 222, (E)-3-((4-(4-(2-cyanovinyl)-2,6-dimethylphenoxy)-6-(1,3-dimethyl-1H-pyrazol-4-yl)-5-methyl-7-oxo-6,7-dihydro-5H-pyrrolo[3,4-d]pyrimidin-2-yl)amino)bicyclo[1.1.1]pentane-1-carbonitrile] | 70.7 nM |
| Cc1cc(/C=C/C#N)cc(C)c1Oc1nc(NC23CC(C#N)(C2)C3)nc2c1C1(C)OC[C@H](F)CN1C2=O (stereo partly drawn) [Example 202, 3-(((7R)-4-(4-((E)-2-cyanovinyl)-2,6-dimethylphenoxy)-7-fluoro-4b-methyl-10-oxo-4b,7,8,10-tetrahydro-6H-pyrimido[5′,4′:3,4]pyrrolo[2,1-b][1,3]oxazin-2-yl)amino)bicyclo[1.1.1]pentane-1-carbonitrile] | 18.9 nM |
| Cc1cc(/C=C/C#N)cc(C)c1Oc1nc(NC23CC(C#N)(C2)C3)nc2nc(Nc3c(C)noc3C)[nH]c12 [Compound 67, (E)-3-((6-(4-(2-cyanovinyl)-2,6-dimethylphenoxy)-8-((3,5-dimethylisoxazol-4-yl)amino)-7H-purin-2-yl)amino)bicyclo[1.1.1]pentane-1-carbonitrile] | 231 nM |
| Cc1cc(/C=C/C#N)cc(C)c1Oc1nc(NC23CC(C#N)(C2)C3)nc2c1nc1n2CC2(CC2)CO1 [Compound 274, (E)-3-((4′-(4-(2-cyanovinyl)-2,6-dimethylphenoxy)-7′H,9′H-spiro[cyclopropane-1,8′-[1,3]oxazino[3,2-e]purin]-2′-yl)amino)bicyclo[1.1.1]pentane-1-carbonitrile] | 111 nM |
| Cc1cc(/C=C/C#N)cc(C)c1Oc1nc(NC23CC(C#N)(C2)C3)nc2c1[C@@H](C)N(C1CC1)C2=O [Compound 180, (R,E)-3-((4-(4-(2-cyanovinyl)-2,6-dimethylphenoxy)-6-cyclopropyl-5-methyl-7-oxo-6,7-dihydro-5H-pyrrolo[3,4-d]pyrimidin-2-yl)amino)bicyclo[1.1.1]pentane-1-carbonitrile] | 92.9 nM |
| Cc1cc(/C=C/C#N)cc(C)c1Oc1nc(NC23CC(C#N)(C2)C3)nc2c1C1(C)OCC3(COC3)CN1C2=O (centres unmarked) [Example 199, (E)-3-((4′-(4-(2-cyanovinyl)-2,6-dimethylphenoxy)-4b′-methyl-10′-oxo-4b′,10′-dihydro-6′H,8′H-spiro[oxetane-3,7′-pyrimido[5′,4′:3,4]pyrrolo[2,1-b][1,3]oxazin]-2′-yl)amino)bicyclo[1.1.1]pentane-1-carbonitrile] | 49 nM |
| Cc1cc(/C=C/C#N)cc(C)c1C(=O)c1nc(NC23CC(C#N)(C2)C3)nc2nn(C)cc12 [Compound 275, (E)-3-((4-(4-(2-cyanovinyl)-2,6-dimethylbenzoyl)-2-methyl-2H-pyrazolo[3,4-d]pyrimidin-6-yl)amino)bicyclo[1.1.1]pentane-1-carbonitrile] | 113 nM |
| Cc1cc(/C=C/C#N)cc(C)c1Oc1nc(NC23CC(C#N)(C2)C3)nc2c(=O)n(C)n(C)c12 [Compound 291, (E)-3-((7-(4-(2-cyanovinyl)-2,6-dimethylphenoxy)-1,2-dimethyl-3-oxo-2,3-dihydro-1H-pyrazolo[4,3-d]pyrimidin-5-yl)amino)bicyclo[1.1.1]pentane-1-carbonitrile] | 31.1 nM |
| Cc1cc(/C=C/C#N)cc(C)c1Oc1nc(NC23CC(C#N)(C2)C3)nc2nn(CCO)cc12 [Compound 305, (E)-3-((4-(4-(2-cyanovinyl)-2,6-dimethylphenoxy)-2-(2-hydroxyethyl)-2H-pyrazolo[3,4-d]pyrimidin-6-yl)amino)bicyclo[1.1.1]pentane-1-carbonitrile] | 45 nM |
| Cn1cc2c(Oc3c(F)cc(/C=C/C#N)cc3Cl)nc(NC34CC(C#N)(C3)C4)nc2n1 [Compound 5, (E)-3-((4-(2-chloro-4-(2-cyanovinyl)-6-fluorophenoxy)-2-methyl-2H-pyrazolo[3,4-d]pyrimidin-6-yl)amino)bicyclo[1.1.1]pentane-1-carbonitrile] | 26.1 nM |
| COCn1cc(N2C(=O)c3nc(NC45CC(C#N)(C4)C5)nc(Oc4c(C)cc(/C=C/C#N)cc4C)c3C2C)cn1 (centres unmarked) [Example 223, (E)-3-((4-(4-(2-cyanovinyl)-2,6-dimethylphenoxy)-6-(1-(methoxymethyl)-1H-pyrazol-4-yl)-5-methyl-7-oxo-6,7-dihydro-5H-pyrrolo[3,4-d]pyrimidin-2-yl)amino)bicyclo[1.1.1]pentane-1-carbonitrile] | 38.3 nM |
| Cc1cc(/C=C/C#N)cc(C)c1Oc1nc(NC23CC(C#N)(C2)C3)nc2[nH]c(=O)n(C(F)F)c12 [Compound 190, (E)-3-((6-(4-(2-cyanovinyl)-2,6-dimethylphenoxy)-7-(difluoromethyl)-8-oxo-8,9-dihydro-7H-purin-2-yl)amino)bicyclo[1.1.1]pentane-1-carbonitrile] | 329 nM |
| Cc1cc(/C=C/C#N)cc(C)c1Oc1nc(NC23CC(C#N)(C2)C3)nc2c1[C@@]1(C)O[C@H]3CC[C@H]3N1C2=O (relative stereo) [Compound 285, 3-(((4bR,5aS,7aR)-4-(4-((E)-2-cyanovinyl)-2,6-dimethylphenoxy)-4b-methyl-9-oxo-4b,5a,6,7,7a,9-hexahydrocyclobuta[4′,5′]oxazolo[3′,2′:1,5]pyrrolo[3,4-d]pyrimidin-2-yl)amino)bicyclo[1.1.1]pentane-1-carbonitrile] | 92.5 nM |
| Cc1cc(/C=C/C#N)cc(C)c1Oc1nc(NC23CC(C#N)(C2)C3)nc2nn(C3CC3)cc12 [Compound 144, (E)-3-((4-(4-(2-cyanovinyl)-2,6-dimethylphenoxy)-2-cyclopropyl-2H-pyrazolo[3,4-d]pyrimidin-6-yl)amino)bicyclo[1.1.1]pentane-1-carbonitrile] | 81 nM |
| Cc1cc(/C=C/C#N)cc(C)c1Oc1nc(NC23CC(C#N)(C2)C3)nc2nn(-c3cnn(C)c3)cc12 [Example 232, (E)-3-((4-(4-(2-cyanovinyl)-2,6-dimethylphenoxy)-2-(1-methyl-1H-pyrazol-4-yl)-2H-pyrazolo[3,4-d]pyrimidin-6-yl)amino)bicyclo[1.1.1]pentane-1-carbonitrile] | 110 nM |
| Cc1cc(/C=C/C#N)cc(C)c1Oc1nc(NC23CC(C#N)(C2)C3)nc2nc(-c3cc[nH]n3)[nH]c12 [Compound 63, (E)-3-((6-(4-(2-cyanovinyl)-2,6-dimethylphenoxy)-8-(1H-pyrazol-3-yl)-7H-purin-2-yl)amino)bicyclo[1.1.1]pentane-1-carbonitrile] | 62.8 nM |
| Cc1cc(/C=C/C#N)cc(C)c1Oc1nc(NC23CC(C#N)(C2)C3)nc2c1C(OCC(F)F)NC2=O (centres unmarked) [Compound 289, (E)-3-((4-(4-(2-cyanovinyl)-2,6-dimethylphenoxy)-5-(2,2-difluoroethoxy)-7-oxo-6,7-dihydro-5H-pyrrolo[3,4-d]pyrimidin-2-yl)amino)bicyclo[1.1.1]pentane-1-carbonitrile] | 52.9 nM |
| C=C1c2c(Oc3c(C)cc(/C=C/C#N)cc3C)nc(NC34CC(C#N)(C3)C4)nc2C(=O)N1[C@H]1CC[C@@H](O)C1 [Compound 269, 3-((4-(4-((E)-2-cyanovinyl)-2,6-dimethylphenoxy)-6-((1S,3R)-3-hydroxycyclopentyl)-5-methylene-7-oxo-6,7-dihydro-5H-pyrrolo[3,4-d]pyrimidin-2-yl)amino)bicyclo[1.1.1]pentane-1-carbonitrile] | 57.3 nM |
| Cc1cc(/C=C/C#N)cc(C)c1Oc1nc(NC23CC(C#N)(C2)C3)nc2nc3n(c12)CCOC3 [Compound 195, (E)-3-((4-(4-(2-cyanovinyl)-2,6-dimethylphenoxy)-6,7-dihydro-9H-[1,4]oxazino[3,4-f]purin-2-yl)amino)bicyclo[1.1.1]pentane-1-carbonitrile] | 37 nM |
| Cc1cc(/C=C/C#N)cc(C)c1Oc1nc(NC23CC(C#N)(C2)C3)nc2c1[C@H](C)N(c1cnn(C)c1)C2=O [Compound 312, (S,E)-3-((4-(4-(2-cyanovinyl)-2,6-dimethylphenoxy)-5-methyl-6-(1-methyl-1H-pyrazol-4-yl)-7-oxo-6,7-dihydro-5H-pyrrolo[3,4-d]pyrimidin-2-yl)amino)bicyclo[1.1.1]pentane-1-carbonitrile] | 15.1 nM |
| COc1n[nH]c2nc(NC34CC(C#N)(C3)C4)nc(Oc3c(C)cc(/C=C/C#N)cc3C)c12 [Compound 109, (E)-3-((4-(4-(2-cyanovinyl)-2,6-dimethylphenoxy)-3-methoxy-1H-pyrazolo[3,4-d]pyrimidin-6-yl)amino)bicyclo[1.1.1]pentane-1-carbonitrile] | 200 nM |
| Cc1cc(/C=C/C#N)cc(C)c1Oc1nc(NC23CC(C#N)(C2)C3)nc2[nH]nc(Br)c12 [Compound 90, (E)-3-((3-bromo-4-(4-(2-cyanovinyl)-2,6-dimethylphenoxy)-1H-pyrazolo[3,4-d]pyrimidin-6-yl)amino)bicyclo[1.1.1]pentane-1-carbonitrile] | 25.4 nM |
| Cc1cc(/C=C/C#N)cc(C)c1Oc1nc(NC23CC(C#N)(C2)C3)nc2nc(Nc3ccccc3)[nH]c12 [Compound 70, (E)-3-((6-(4-(2-cyanovinyl)-2,6-dimethylphenoxy)-8-(phenylamino)-7H-purin-2-yl)amino)bicyclo[1.1.1]pentane-1-carbonitrile] | 415 nM |
| Cc1cc(/C=C/C#N)cc(C)c1Oc1nc(NC23CC(C#N)(C2)C3)nc2[nH]nc(C(C)C)c12 [Compound 126, 3-[[4-[4-[(E)-2-cyanovinyl]-2,6-dimethyl-phenoxy]-3-isopropyl-1H-pyrazolo[3,4-d]pyrimidin-6-yl]amino]bicyclo[1.1.1]pentane-1-carbonitrile] | 119 nM |
| Cc1cc(/C=C/C#N)cc(C)c1Oc1nc(NC23CC(C#N)(C2)C3)nc2nnn(C)c12 [Compound 81, (E)-3-((7-(4-(2-cyanovinyl)-2,6-dimethylphenoxy)-1-methyl-11H-[1,2,3]triazolo[4,5-d]pyrimidin-5-yl)amino)bicyclo[1.1.1]pentane-1-carbonitrile] | 35.6 nM |
